Measurements from US9630958B2, “Triazine compounds” (Sphaera Pharma Pte. Ltd., priority 2012, dated 2017).

How the values were obtained:
[1] = biological target: T1, Recombinant mTOR (FRAP1) (Homo sapiens, UniProt P42345); assay: mTOR in vitro kinase assay (TR-FRET, phosphorylation of GFP-4E-BP1); type: biochemical; settings: for IC50: 8 μM ATP, 400 nM GFP-4E-BP1; for inhibition at 1 µM: 1 uM compound, read-out: mTOR % Inhib@1 uM
T1 construct: purchased Invitrogen
Procedure: Compounds were evaluated for mTOR activity using an in vitro kinase assay.
mTOR activity is measured in vitro by determining the level of phosphorylation of the protein substrate 4EBP-1. The phosphorylation of GFP-4E-BP1 at threonine residue is recognized by Ab Tb-Anti-p4EBP1, which results in time resolved fluorescence energy transfer (TR-FRET) between GFP and Terbium in the Ab-Protein complex.
Recombinant mTOR (FRAP1), Kinase reaction buffer, GFP-4E-BP1 and LanthaScreen Tb-anti-4E-BP1 (pThr46), TR FRET dilution buffer, Kinase Quench Buffer were obtained from Invitrogen.
Kinase reactions were performed in 10 μl volume in Corning white 384 well plates. […] The reaction was initiated by the addition of substrate (GFP-4E-BP1) and ATP at a final conc. of 400 nM and 8 μM ATP in the reaction respectively. The kinase reaction was allowed to proceed for 1 hour at room temperature before a 10 μL preparation of kinase quench buffer and Tb-labeled Antibody in TR-FRET dilution buffer was added. The final concentration of the antibody in the assay well is 2 nM and the final concentration of EDTA is 10 mM. The plate was incubated at room temperature for 1 h.
(§1) FRET signal was read in Envision Multilabel Reader with the following filters:
Excitation-330 nm and Emission 486 nm (donor) and 520 nm (acceptor).
TR FRET Ratio (Fluorescence 520 nm/Fluorescence 486 nm) was plotted against the concentration of inhibitor and data was fit to Non Linear Regression curve fit (sigmoidal dose response curve with variable slope-four parameters) using Graph Pad Prism 5.

[2] = biological target: T2, PI3 Kinase alpha (p110 alpha/p85 alpha) (Homo sapiens, UniProt P42336); assay: PI3K TR-FRET assay (Transcreener ADP2); type: biochemical; settings: for inhibition at 1 µM: 1 uM compound, read-out: PI3K % Inhib@1 uM; for IC50: PI3K alpha, 1 μM ATP, 50 μM PIP2
T2 construct: purchased Invitrogen
T2 sequence (P42336 whole entry): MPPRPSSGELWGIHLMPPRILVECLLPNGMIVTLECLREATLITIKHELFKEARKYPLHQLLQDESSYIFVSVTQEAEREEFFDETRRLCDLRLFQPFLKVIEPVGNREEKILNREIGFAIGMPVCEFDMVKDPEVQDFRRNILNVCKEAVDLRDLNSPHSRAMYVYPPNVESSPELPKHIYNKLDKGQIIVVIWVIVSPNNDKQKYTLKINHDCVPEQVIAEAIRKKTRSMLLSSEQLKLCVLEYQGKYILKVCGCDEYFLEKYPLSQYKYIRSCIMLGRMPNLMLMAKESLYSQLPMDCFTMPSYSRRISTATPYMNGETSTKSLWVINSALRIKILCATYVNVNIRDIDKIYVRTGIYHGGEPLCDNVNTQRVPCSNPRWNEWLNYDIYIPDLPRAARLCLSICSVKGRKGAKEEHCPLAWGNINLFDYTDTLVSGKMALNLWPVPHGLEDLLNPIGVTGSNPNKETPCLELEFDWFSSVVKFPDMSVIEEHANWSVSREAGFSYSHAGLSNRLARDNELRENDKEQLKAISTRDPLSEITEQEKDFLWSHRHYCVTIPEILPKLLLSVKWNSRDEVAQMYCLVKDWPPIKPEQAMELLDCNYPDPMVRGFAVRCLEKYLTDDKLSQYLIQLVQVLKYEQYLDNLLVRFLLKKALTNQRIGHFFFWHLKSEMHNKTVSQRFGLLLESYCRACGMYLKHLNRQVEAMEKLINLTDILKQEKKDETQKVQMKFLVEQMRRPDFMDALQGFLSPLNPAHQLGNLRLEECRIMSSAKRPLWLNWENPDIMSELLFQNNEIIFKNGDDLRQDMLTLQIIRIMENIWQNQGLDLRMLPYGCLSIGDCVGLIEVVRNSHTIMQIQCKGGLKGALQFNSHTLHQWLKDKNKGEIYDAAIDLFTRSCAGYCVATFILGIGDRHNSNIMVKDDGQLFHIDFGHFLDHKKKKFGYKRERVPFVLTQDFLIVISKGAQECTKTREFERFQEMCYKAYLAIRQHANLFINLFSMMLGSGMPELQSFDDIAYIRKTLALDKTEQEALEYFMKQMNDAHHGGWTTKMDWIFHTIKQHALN
T2 sequence (P27986 whole entry partner): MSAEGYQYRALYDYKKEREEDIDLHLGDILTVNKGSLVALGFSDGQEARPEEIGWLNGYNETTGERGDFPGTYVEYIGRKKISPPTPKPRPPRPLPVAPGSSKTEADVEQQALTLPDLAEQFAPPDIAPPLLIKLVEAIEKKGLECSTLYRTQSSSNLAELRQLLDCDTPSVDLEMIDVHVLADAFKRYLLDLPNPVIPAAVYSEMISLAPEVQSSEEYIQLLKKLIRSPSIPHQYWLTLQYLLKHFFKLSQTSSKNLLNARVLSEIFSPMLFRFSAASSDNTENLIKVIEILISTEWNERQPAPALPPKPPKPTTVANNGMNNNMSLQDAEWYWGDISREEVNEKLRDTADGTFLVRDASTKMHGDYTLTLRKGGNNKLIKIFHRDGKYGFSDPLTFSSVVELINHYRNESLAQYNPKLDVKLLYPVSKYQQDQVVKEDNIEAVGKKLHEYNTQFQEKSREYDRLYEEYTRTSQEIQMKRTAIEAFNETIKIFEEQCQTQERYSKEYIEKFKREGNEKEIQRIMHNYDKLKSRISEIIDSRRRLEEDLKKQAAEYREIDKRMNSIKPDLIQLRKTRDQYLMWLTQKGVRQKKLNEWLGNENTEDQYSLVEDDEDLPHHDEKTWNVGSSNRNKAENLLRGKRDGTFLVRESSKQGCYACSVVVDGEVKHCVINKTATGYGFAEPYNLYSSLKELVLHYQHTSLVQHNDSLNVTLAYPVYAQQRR
Procedure: Enzymatic activity of PI3K alpha was measured using Time resolved Fluorescence resonance energy transfer (TR-FRET) assay. This assay utilizes ADP detection as a means to screen inhibitor potency of compounds. The Transcreener ADP2 TR-FRET Red Assay is a competitive immunoassay for ADP with a far-red, TR-FRET readout and it has been used for this purpose. The assay can be used for any enzyme class that produces ADP (Kinases, ATPases). It consists of ADP HiLyte647 Tracer, ADP^2 Antibody-Tb conjugate (800 nM), stop & detect buffer, 5 mM ATP, 5 mM ADP. The ADP HiLyte647 Tracer is bound to an ADP^2 Antibody-Tb conjugate. The excitation of the terbium complex in the UV range results in energy transfer to the tracer and emission at a higher wavelength after a time delay ADP produced by the target enzyme displaces the tracer which causes decrease in TR-FRET.
The reaction buffer used for the assay was 50 mM HEPES, pH 7.4.3 mM MgCl2, 0.05% CHAPS, 50 mM NaCl, 2 mM DTT, 1 mM EGTA. PI3 Kinase alpha (p110 alpha/p85 alpha) and PIP2 Substrate (diC8,) were procured from Invitrogen and Echelon respectively.
Kinase reactions were performed in 10 μl volume in Corning white 384 well plates. […] Reaction was initiated by the addition of substrate (PIP2) and ATP at final conc. of 50 μM and 1 μM ATP in the reaction respectively. Kinase reactions were allowed to proceed for 1 hour at room temperature before a 10 μL preparation of Transcreener ADP detection mix was added. Plate was incubated at room temperature for 1 hr. ADP-ATP standard curves were also prepared.
as §1
Excitation-330 nm and Emission 615 nm (donor) and 665 nm (acceptor). TR FRET Ratio (Fluorescence 665 nm/Fluorescence 615 nm) was converted to amount of product formed using the standard curve generated. Percentage inhibition was calculated and plotted against the concentration of inhibitor and data was fit to Non Linear Regression curve fit (sigmoidal dose response curve with variable slope-four parameters) using Graph pad prism 5 and IC50 was calculated for the compound.

T1 sequence (P42345 1360-2549 limits assumed): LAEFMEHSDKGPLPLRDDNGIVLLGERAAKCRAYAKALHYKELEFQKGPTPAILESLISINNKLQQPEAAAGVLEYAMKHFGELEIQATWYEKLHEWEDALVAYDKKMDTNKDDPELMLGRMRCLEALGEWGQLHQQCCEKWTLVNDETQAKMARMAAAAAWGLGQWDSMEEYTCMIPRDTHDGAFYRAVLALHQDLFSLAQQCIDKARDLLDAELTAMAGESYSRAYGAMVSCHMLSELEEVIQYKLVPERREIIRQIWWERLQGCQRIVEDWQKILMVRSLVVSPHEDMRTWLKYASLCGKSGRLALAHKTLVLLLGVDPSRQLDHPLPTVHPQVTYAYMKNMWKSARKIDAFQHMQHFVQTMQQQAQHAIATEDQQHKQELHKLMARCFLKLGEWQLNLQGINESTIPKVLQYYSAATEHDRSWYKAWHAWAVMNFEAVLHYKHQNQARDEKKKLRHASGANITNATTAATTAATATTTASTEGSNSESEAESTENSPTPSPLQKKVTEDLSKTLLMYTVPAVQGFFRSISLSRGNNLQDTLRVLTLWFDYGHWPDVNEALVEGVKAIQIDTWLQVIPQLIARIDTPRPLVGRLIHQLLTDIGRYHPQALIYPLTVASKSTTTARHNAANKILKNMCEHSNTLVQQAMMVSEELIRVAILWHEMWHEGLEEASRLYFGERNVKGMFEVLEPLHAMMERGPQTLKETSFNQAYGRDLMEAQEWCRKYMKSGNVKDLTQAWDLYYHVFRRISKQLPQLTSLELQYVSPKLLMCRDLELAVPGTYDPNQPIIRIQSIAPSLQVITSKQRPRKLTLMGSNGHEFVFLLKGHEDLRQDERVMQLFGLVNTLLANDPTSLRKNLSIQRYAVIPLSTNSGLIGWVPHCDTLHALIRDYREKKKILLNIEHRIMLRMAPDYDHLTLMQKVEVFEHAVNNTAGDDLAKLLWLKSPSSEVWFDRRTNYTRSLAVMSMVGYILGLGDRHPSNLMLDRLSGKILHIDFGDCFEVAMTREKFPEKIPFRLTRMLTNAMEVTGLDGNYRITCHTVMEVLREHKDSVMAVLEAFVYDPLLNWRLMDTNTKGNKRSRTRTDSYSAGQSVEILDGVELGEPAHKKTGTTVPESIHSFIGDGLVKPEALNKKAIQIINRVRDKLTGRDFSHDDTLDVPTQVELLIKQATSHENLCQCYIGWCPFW

SMILES | IC50 [1] | inhibition at 1 µM [2] | IC50 [2] | inhibition at 1 µM [1]
C[C@H]1CN(c2nc(Oc3ccc(C(=O)N(C)C)cc3F)nc(-c3ccc(N)nc3)n2)[C@@H](C)CO1 [Compound 10097, 4-((4-(6-Aminopyridin-3-yl)-6-((2S,5S)-2,5-dimethylmorpholino)-1,3,5-triazin-2-yl)oxy)-3-fluoro-N,N-dimethylbenzamide] | < 1 µM | > 50% | < 1 µM | –
CNC(=O)c1ccc(Oc2nc(-c3cnc(N)s3)nc(N3CCOCC3)n2)cc1 [Compound 10193, 4-((4-(2-aminothiazol-5-yl)-6-morpholino-1,3,5-triazin-2-yl)oxy)-N-methylbenzamide] | – | – | < 1 µM | < 50%
CN(C)C(=O)[C@H]1CC[C@H](Oc2nc(-c3ccc(N)nc3)nc(N3CCO[C@@H]4CCC[C@H]43)n2)CC1 [Compound 10148, (1R,4r)-4-(4-(6-aminopyridin-3-yl)-6-((4aR,7aR)-hexahydrocyclopenta[b][1,4]oxazin-4(4aH)-yl)-1,3,5-triazin-2-yloxy)-N,N-dimethylcyclohexanecarboxamide] | < 1 µM | < 50% | – | –
CN(C)C(=O)c1ccc(Oc2nc(-c3cnc(N)s3)nc(N3CC4CCC(C3)O4)n2)cc1 [Compound 10075, 4-((4-(2-Aminothiazol-5-yl)-6-(8-oxa-3-azabicyclo[3.2.1]octan-3-yl)-1,3,5-triazin-2-yl)oxy)-N,N-dimethylbenzamide] | < 1 µM | < 50% | > 1 µM | > 50%
CN(C)C(=O)c1ccc(Oc2nc(-c3cnc(N)[nH]3)nc(N3CCOCC3)n2)cc1 [Compound 10124, 4-(4-(2-amino-1H-imidazol-5-yl)-6-morpholino-1,3,5-triazin-2-yloxy)-N,N-dimethylbenzamide] | – | < 50% | – | < 50%
CC[C@@H]1COCCN1c1nc(Oc2ccc(C(=O)N(C)C)cc2)nc(-c2cnc(N)s2)n1 [Compound 10082, (R)-4-((4-(2-Aminothiazol-5-yl)-6-(3-ethylmorpholino)-1,3,5-triazin-2-yl)oxy)-N,N-dimethylbenzamide] | – | < 50% | – | < 50%
CN(C)C(=O)Cc1ccc(Oc2nc(-c3ccc(N)nc3)nc(N3CCOCC3)n2)cc1 [Compound 10180, 2-(4-((4-(6-aminopyridin-3-yl)-6-morpholino-1,3,5-triazin-2-yl)oxy)phenyl)-N,N-dimethylacetamide] | < 1 µM | – | < 1 µM | > 50%
CN(C)C(=O)NC1CCN(c2nc(-c3ccc(N)nc3)nc(N3CCOCC3)n2)CC1 [Compound 10188, 3-(1-(4-(6-aminopyridin-3-yl)-6-morpholino-1,3,5-triazin-2-yl)piperidin-4-yl)-1,1-dimethylurea] | – | – | > 1 µM | < 50%
C[C@@H]1CN(c2nc(Oc3ccc(C(=O)N(C)C)cc3F)nc(-c3cnc(N)s3)n2)C[C@H](C)O1 [Compound 10069] | < 1 µM | – | > 1 µM | –
C[C@H]1CN(c2nc(Oc3ccc(C(=O)N(C)C)cc3)nc(-c3cnc(N)s3)n2)[C@@H](C)CO1 [Compound 10077, 4-((4-(2-Aminothiazol-5-yl)-6-((2S,5S)-2,5-dimethylmorpholino)-1,3,5-triazin-2-yl)oxy)-N,N-dimethylbenzamide] | < 1 µM | > 50% | < 1 µM | –
CN(C)C(=O)c1ccc(Oc2nc(-c3ccc(N)nc3)nc(N3CC4CCC(C3)O4)n2)c(F)c1 [Compound 10095] | < 1 µM | < 50% | > 1 µM | –
CN(C)C(=O)c1cccc(Nc2nc(-c3cnc(N)s3)nc(N3CCOCC3)n2)c1 [Compound 10200, 3-((4-(2-aminothiazol-5-yl)-6-morpholino-1,3,5-triazin-2-yl)amino)-N,N-dimethylbenzamide] | – | – | < 1 µM | < 50%
C[C@H]1COCCN1c1nc(O[C@H]2CC[C@H](C(=O)N(C)C)CC2)nc(-c2ccc3[nH]ncc3c2)n1 [Compound 10202, (1S,4r)-4-((4-(1H-indazol-5-yl)-6-((S)-3-methylmorpholino)-1,3,5-triazin-2-yl)oxy)-N,N-dimethylcyclohexane-1-carboxamide] | > 1 µM | – | > 10 µM | –
CN(C)C(=O)c1ccc(Oc2nc(-c3cnc(N)s3)nc(N3CCOCC3(C)C)n2)cc1 [Compound 10128, 4-(4-(2-aminothiazol-5-yl)-6-(3,3-dimethylmorpholino)-1,3,5-triazin-2-yloxy)-N,N-dimethylbenzamide] | < 1 µM | > 50% | < 1 µM | > 50%
CN(C)C(=O)c1ccc(Oc2nc(-c3cnc(N)s3)nc(N3C[C@H]4C[C@@H](C3)O4)n2)cc1 [Compound 10046, 4-(4-(2-aminothiazol-5-yl)-6-((1R,5S)-6-oxa-3-azabicyclo[3.1.1]heptan-3-yl)-1,3,5-triazin-2-yloxy)-N,N-dimethylbenzamide] | – | < 50% | – | < 50%
C[C@H]1COCCN1c1nc(Oc2ccc(C(=O)N(C)C)cc2)nc(-c2cnc3[nH]ccc3c2)n1 [Compound 10157, 4-(4-((S)-3-methylmorpholino)-6-(1H-pyrrolo[2,3-b]pyridin-5-yl)-1,3,5-triazin-2-yloxy)-N,N-dimethylbenzamide] | < 1 µM | – | < 1 µM | –
C[C@H]1CN(c2nc(Oc3ccc(C(=O)N(C)C)cc3F)nc(-c3ccc4[nH]ncc4c3)n2)[C@@H](C)CO1 [Compound 10063, 4-((4-((25,3S)-2,5-dimethylmorpholino)-6-(1H-indazol-5-yl)-1,3,5-triazin-2-yl)oxy)-3-fluoro-N,N-dimethylbenzamide] | < 1 µM | < 50% | – | –
C[C@H]1COCCN1c1nc(OC2CCN(C(=O)N(C)C)C2)nc(-c2cnc(N)s2)n1 (stereo partly drawn) [Compound 10138, 3-(4-(2-aminothiazol-5-yl)-6-((S)-3-methylmorpholino)-1,3,5-triazin-2-yloxy)-N,N-dimethylpyrrolidine-1-carboxamide] | > 1 µM | > 50% | < 1 µM | < 50%
C[C@H]1COCCN1c1nc(Oc2ccc(C(=O)N(C)C)cc2)nc(-c2cnc(N)s2)n1 [Compound 10005, (S)-4-(4-(2-aminothiazol-5-yl)-6-(3-methylmorpholino)-1,3,5-triazin-2-yloxy)-N,N-dimethylbenzamide] | < 1 µM | – | < 1 µM | > 50%
C[C@@H]1CN(c2nc(Oc3ccc(C(=O)N(C)C)cc3F)nc(-c3ccc4[nH]ncc4c3)n2)[C@@H](C)CO1 [Compound 10064, 4-((4-((2R,3S)-2,5-dimethylmorpholino)-6-(1H-indazol-5-yl)-1,3,5-triazin-2-yl)oxy)3-fluoro-N,N-dimethylbenzamide] | < 1 µM | < 50% | – | –
C[C@H]1CN(c2nc(Oc3ccc(C(=O)N(C)C)cc3F)nc(-c3cnc(N)s3)n2)[C@@H](C)CO1 [Compound 10153, 4-(4-(2-aminothiazol-5-yl)-6-((2S,5S)-2,5-dimethylmorpholino)-1,3,5-triazin-2-yloxy)-3-fluoro-N,N-dimethylbenzamide] | < 1 µM | < 50% | < 1 µM | –
CN(C)C(=O)c1ccc(Nc2nc(-c3cnc(N)s3)nc(N3CCOCC3)n2)cc1 [Compound 10196, 4-((4-(2-aminothiazol-5-yl)-6-morpholino-1,3,5-triazin-2-yl)amino)-N,N-dimethylbenzamide] | – | – | < 1 µM | < 50%
